The text below walks through data of US4581346A, “Macrolide derivatives” (Eli Lilly and Company, priority 1984, dated 1986).

Test in all cases: Standard agar-dilution assay, MIC
What all share (assay type): cell-based

One assay concerns Escherichia coli EC14. How it is done: (§1) The minimal inhibitory concentrations (MIC's) at which the tylosin derivative (formula 1 compound wherein [drawing 11] and R^3 =mycarosyloxy) inhibits certain bacteria are given in Table II. The MIC's in Table II were determined by standard agar-dilution assays.
Another assay relates to Escherichia coli N10. How it is done: as §1
In the next assay the test system is Escherichia coli TEM. As to the method:
as §1

Assay [1] deals with Haemophilus influenzae 76. The conditions noted are these: Haemophilus influenzae 76, ampicillin-resistant strain. As to the method: as §1
Assay [2] deals with Haemophilus influenzae C.L. The settings on record: ampicillin-sensitive strain. How it is done: as §1
The subject of assay [3] is Staphylococcus aureus S13E. How it is done: as §1
The test system of assay [4] is Staphylococcus aureus V41. The settings on record: Staphylococcus aureus V41, penicillin-resistant strain. How it is done:
as §1

The test system of assay [5] is Staphylococcus aureus X1.1. As to the method: as §1
In assay [6] the test system is Staphylococcus aureus X400. As to the method: as §1
The subject of assay [7] is Staphylococcus epidermidis EPI1. How it is done:
as §1

Assay [8] relates to Staphylococcus epidermidis EPI2. As to the method: as §1
Assay [9] has as its system Streptococcus Group D 9960. The conditions noted are these: GROUPD9960. As to the method: as §1
Assay [10] concerns Streptococcus Group D X66. How it is done:
as §1

Assay [11] deals with Streptococcus pneumoniae Park I. How it is done:
as §1

Assay [12] concerns Streptococcus pyogenes C203. As to the method: as §1

Converted amounts (≈) assume the structure as drawn.

In the case of `CCC1OC(=O)CC(O)C(C)C(OC2OC(C)C(OC3CC(C)(O)C(O)C(C)O3)C(N(C)C)C2O)C2CC(O)C(C)(C2)C(=O)C=CC(C)=CC1COC1OC(C)C(O)C(OC)C1OC` (stereo not drawn) [8,20-Cyclo-Tylosin, 8,20-Cyclo-tylosin], the MIC in the assay with Escherichia coli EC14 was more than 128 µg/mL; against Escherichia coli N10, more than 128 µg/mL; in the assay on Escherichia coli TEM, more than 128 µg/mL; in assay [1], 128 µg/mL (≈ 140 µM); in assay [2], 128 µg/mL (≈ 140 µM); in [3] it was 2 µg/mL (≈ 2.18 µM). The MIC came to 2 µg/mL (≈ 2.18 µM) in assay [4]; 1 µg/mL (≈ 1.09 µM) in [5]; 2 µg/mL (≈ 2.18 µM) in assay [6]; 1 µg/mL (≈ 1.09 µM) in [7]; 0.5 µg/mL (≈ 0.546 µM) in assay [8]; 32 µg/mL (≈ 34.9 µM) in assay [9]. Besides, the results for the MIC in assay [10], in [11] and in assay [12] were 32 µg/mL (≈ 34.9 µM), 2 µg/mL (≈ 2.18 µM) and 1 µg/mL (≈ 1.09 µM), respectively.
